Reference: patent US20150038545A1, “HYDROXYPHENYL PYRROLE COMPOUNDS CONTAINING AN HYDROXAMIC ACID AS HDAC INHIBITORS AND MEDICINAL APPLICATIONS THEREOF” (UNIVERSIDAD DEL PAÍS VASCO, priority 2011, published 2015)

What was measured:
Human HDAC5 = molecular target: T1, Human HDAC5 (Homo sapiens, UniProt Q9UQL6); assay: In vitro HDAC5 inhibition, fluorogenic peptide assay; assay type: biochemical; conditions: for IC50: read-out: IC50 (nM) of enzyme activity HDAC5
T1 construct: Full length with Nterminal GST tag, MW=150 kDa; GST (N); purchased BioMol, Hamburg, Germany; host or cells: Sf9 cells, baculovirus
Experimental: All HDAC assays were performed using acetylated AMC-labeled peptide substrate: • Substrate for isoforms HDAC1, 2, 3, 4, 5, 6, 7, 9, 10, 11 and HeLa nuclear extract assays: Acetylated fluorogenic peptide from p53 residues 379-382 (RHKKAc) (BioMol. Cat. # KI-104). • Substrate for HDAC8 assays: Acetylated fluorogenic peptide from p53 residues 379-382 (RHKAcKAc) (BioMol. Cat. # KI-178).
Enzymes: • HDAC1 assay: 75 nM Human HDAC1 (GenBank Accession No. NM_004964): Full length with C-terminal GST tag, MW=79.9 kDa, expressed by baculovirus expression system in Sf9 cells (BioMol. Cat. # SE-456). • HDAC2 assay: 5 nM Human HDAC2 (GenBank Accession No. Q92769): Full length with C-terminal His tag, MW=60 kDa, expressed by baculovirus expression system in Sf9 cells (BioMol. Cat. # SE-500). • HDAC3 assay: 2.3 nM Human HDAC3/NcoR2 (GenBank Accession No. NM_003883 for HDAC3, GenBank Accession No.NM_006312 for NcoR2): Complex of human HDAC3, full length with C-terminal His tag, MW=49.7 kDa, and human NCOR2, N-terminal GST tag, MW=39 kDa, co-expressed in baculovirus expression system (BioMol. Cat. # SE-507). • HDAC4 assay: 266 nM Human HDAC4 (GenBank Accession No. NM_006037): Amino acids 627-1085 with N-terminal GST tag, MW=75.2 kDa, expressed in baculovirus expression system (BioMol, Hamburg, Germany). • HDAC5 assay: 588 nM Human HDAC5 (GenBank Accession No. NM_001015053): Full length with Nterminal GST tag, MW=150 kDa, expressed by baculovirus expression system in Sf9 cells (BioMol, Hamburg, Germany). • HDAC6 assay: 13 nM Human HDAC6 (GenBank Accession No. BC069243): Full length with N-terminal GST tag, MW=159 kDa, expressed by baculovirus expression system in Sf9 cells (BioMol. Cat. # SE-508). • HDAC7 assay: 962 nM Human HDAC7 (GenBank Accession No. AY302468): Amino acids 518-end with N-terminal GST tag, MW=78 kDa, expressed in baculovirus expression system (BioMol, Hamburg, Germany). • HDAC8 assay: 119 nM Human HDAC8 (GenBank Accession No. NM018486): Full length, MW=42 kDa, expressed in an E. coli expression system (BioMol. […]
The reactions were carried out in a 96-well microplate for fluorometry in a 50 μl reaction volume. […] The reaction was allowed to develop for 45 minutes at 30° C. with 5% CO2; then the fluorescent signal was measured with an excitation wavelength at 360 nm and an emission wavelength at 460 nm in a microplate-reading fluorometer (GeminiXS; Molecular Devices, Sunnyvale, Calif.). […] IC50 was calculated by fitting the experimental data to a dose-response curve. […]

NCI-H1703 = assay: Cancer cell growth inhibition (CellTiter-Glo), NCI-H1703; assay type: cell-based, Human; conditions: Homo sapiens; Lung Cancer, NCI-H1703, 72 h treatment
Experimental: (§1) Cell culture-based assays were used to evaluate the ability of compounds of the invention to inhibit cancer cell growth.
(§2) Cells were obtained from the American Type Culture Collection (ATCC). Cells were cultured at 37° C. with 5% CO2 in the appropriate growth medium (see table below), and harvested respectively during the logarithmic growth period and counted with hemocytometer. The cell viability was examined by trypan blue exclusion. Cell concentrations were adjusted to 5.56×10^4 cells/ml with respective medium.
(§3) Stock solutions of test compounds and positive drugs Doxorubicin (Zhejiang, Haizheng, China), Cisplatin (Nanjing Zhiyao, China) and Mitomycin (Zhejiang, Haizheng, China) were prepared in dimethyl sulphoxide (DMSO) or PBS at 20 mM.
(§4) In order to determine the IC50 for each compound, experiments were carried out in 96-well plates and the cell lines seeded at a density of 5,000 cells/well. […] All treatments were performed in triplicate. 10 μl of drug solution was added to each well and incubated for 72 hours. At the end of the incubation, 100 μl of the CellTiter-Glo Reagent were added to each well and the contents were mixed for 2 munites on an orbital shaker to induce cell lysis. The plate was incubated at room temperature for 10 minutes to stabilize luminiscent signal, and luminiscent was recorded. […] In order to calculate IC50 values, dose-responsive curves were fitted using nonlinear regression model with a sigmoidal dose response.

Bx-PC-3 = assay: Cancer cell growth inhibition (CellTiter-Glo), Bx-PC-3; assay type: cell-based, Human; conditions: Homo sapiens, BXPC-3; Pancreatic Cancer, Bx-PC-3, 72 h treatment
Experimental: as §1, §2, §3, §4

K562 = assay: Cancer cell growth inhibition (CellTiter-Glo), K562; assay type: cell-based, Human; conditions: Homo sapiens; CML, K562, 72 h treatment
Experimental: as §1, §2, §3, §4

T1 sequence (Q9UQL6 1-1123 isoform Q9UQL6-3): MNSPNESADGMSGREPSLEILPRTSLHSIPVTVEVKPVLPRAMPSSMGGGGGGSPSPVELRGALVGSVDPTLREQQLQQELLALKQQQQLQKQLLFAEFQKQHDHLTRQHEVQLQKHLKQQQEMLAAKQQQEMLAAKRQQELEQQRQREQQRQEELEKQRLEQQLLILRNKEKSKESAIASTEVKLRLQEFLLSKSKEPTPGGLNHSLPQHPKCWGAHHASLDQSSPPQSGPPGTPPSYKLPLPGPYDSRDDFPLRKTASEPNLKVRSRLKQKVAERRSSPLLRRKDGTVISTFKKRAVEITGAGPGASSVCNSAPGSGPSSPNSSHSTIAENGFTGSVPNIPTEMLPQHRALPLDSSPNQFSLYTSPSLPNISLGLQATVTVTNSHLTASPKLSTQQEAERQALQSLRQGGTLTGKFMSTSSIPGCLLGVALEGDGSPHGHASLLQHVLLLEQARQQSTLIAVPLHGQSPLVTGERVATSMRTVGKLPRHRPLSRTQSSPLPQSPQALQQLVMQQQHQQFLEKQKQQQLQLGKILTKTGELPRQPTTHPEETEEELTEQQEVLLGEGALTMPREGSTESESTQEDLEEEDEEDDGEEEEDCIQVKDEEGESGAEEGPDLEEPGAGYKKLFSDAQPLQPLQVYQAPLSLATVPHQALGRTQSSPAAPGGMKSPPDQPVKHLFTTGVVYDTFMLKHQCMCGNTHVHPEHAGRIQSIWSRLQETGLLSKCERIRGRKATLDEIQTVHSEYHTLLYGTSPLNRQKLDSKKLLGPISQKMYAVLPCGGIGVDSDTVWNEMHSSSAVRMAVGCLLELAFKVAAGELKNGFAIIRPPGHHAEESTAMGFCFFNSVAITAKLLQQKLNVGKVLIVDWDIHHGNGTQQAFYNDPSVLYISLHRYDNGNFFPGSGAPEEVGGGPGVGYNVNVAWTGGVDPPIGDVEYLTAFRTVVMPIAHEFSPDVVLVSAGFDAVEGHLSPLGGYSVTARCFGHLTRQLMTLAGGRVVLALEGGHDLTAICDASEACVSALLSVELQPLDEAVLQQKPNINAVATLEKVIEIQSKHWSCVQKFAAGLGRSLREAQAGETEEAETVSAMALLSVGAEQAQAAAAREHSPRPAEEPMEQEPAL

Row | Selectivity against HDAC6 (IC50 HDACx/IC50 HDAC6) HDAC5 (Human HDAC5; IC50 HDAC5/IC50 HDAC6) | IC50 (Human HDAC5) | IC50 (NCI-H1703) | IC50 (Bx-PC-3) | IC50 (K562) | melting point | Compound
1 | 32.7 | 655 nM |  |  |  |  | COc1ccc(-c2cc(-c3ccccc3)[nH]c2C(=O)NCCCCCC(=O)NO)cc1 [Compound A, N-[6-(hydroxyamino)-6-oxohexyl]-3-(4-methoxyphenyl)-5-phenyl-1H-pyrrole-2-carboxamide, reference compound]
2 |  | 14 nM | 1.64 µM | 2.42 µM | 1.75 µM |  | O=C(CCCCCNC(=O)c1[nH]c(-c2ccc(O)cc2)cc1-c1ccoc1)NO [Example 5, 3-(3-furyl)-N-(5-(hydroxycarbamoyl)pentyl)-5-(4-hydroxy-phenyl)-1H-pyrrole-2-carboxamide]
3 |  | 43 nM | 1.83 µM | 2.91 µM | 1.35 µM |  | O=C(CCCCCNC(=O)c1[nH]c(-c2ccc(O)cc2)cc1-c1ccsc1)NO [Example 6, N-(5-(hydroxycarbamoyl)pentyl)-5-(4-hydroxyphenyl)-3-(3-thienyl)-1H-pyrrole-2-carboxamide]
4 |  |  | 2.06 µM | 4.27 µM | 1.61 µM | 224 to 225 °C | O=C(CCCCCNC(=O)c1[nH]c(-c2ccc(O)cc2)cc1-c1ccccc1)NO [Example 2, N-(6-(hydroxyamino)-6-oxohexyl)-5-(4-hydroxyphenyl)-3-phenyl-1H-pyrrole-2-carboxamide]
5 |  |  | 3.26 µM | 2.68 µM | 1.02 µM | 99 to 100 °C | O=C(CCCCCNC(=O)c1[nH]c(-c2ccccc2)cc1-c1ccc(O)cc1)NO [Example 1, N-(6-(hydroxyamino)-6-oxohexyl)-3-(4-hydroxyphenyl)-5-phenyl-1H-pyrrole-2-carboxamide]
